Results on five molecules are retold here after ChEMBL document CHEMBL1150152, “Araguspongines K and L, new bioactive bis-1-oxaquinolizidine N-oxide alkaloids from Red Sea specimens of Xestospongia exigua” (J Nat Prod, 2002).

In assay [1] the test system is Plasmodium falciparum. As to the kind of experiment: Antimalarial activity against Plasmodium falciparum W2. Format: functional, organism-based.
Assay [2] relates to Plasmodium falciparum. Kind of assay: Antimalarial activity against Plasmodium falciparum D6. Format: functional, organism-based.
Assay [3] has as its system Mycobacterium tuberculosis. As to the kind of experiment: Antitubercular activity against Mycobacterium tuberculosis H37Rv by alamar blue assay. The class given is functional.

Values after ≈ are worked out from the molar mass of the structure shown. Active and inactive are the calls of the source.

On to `O[C@]12CCCCCC[C@@H]3CCN4CCC[C@](O)(CCCCCC[C@@H]5CCN(CCC1)[C@H]2O5)[C@@H]4O3`, for which the figures for the IC50 in the assay on Plasmodium falciparum [1] and in the assay on Plasmodium falciparum [2] were 0.28 µg/mL (≈ 0.585 µM) and 0.67 µg/mL (≈ 1.4 µM), respectively. In assay [3], this molecule displayed an MIC of 3.94 µM (≈ 1.89 µg/mL).

Regarding `[O-][N+]12CCC[C@]3(O)CCCCCC[C@@H]4CCN5CCC[C@](O)(CCCCCC[C@H](CC1)O[C@@H]32)[C@@H]5O4` (stereo not given in full), the result with Plasmodium falciparum [1] and in the assay on Plasmodium falciparum [2] was inactive.

Consider `C[C@@H]1CC[C@H]2[C@@H](C)C(=O)O[C@@H]3O[C@@]4(C)CC[C@@H]1[C@]32OO4` [ARTEMISININ], for which the IC50 amounted to 0.007 µg/mL (≈ 0.0248 µM) in the assay with Plasmodium falciparum [1] and 0.006 µg/mL (≈ 0.0213 µM) in the assay on Plasmodium falciparum [2].

For `CO[C@H]1/C=C/O[C@@]2(C)Oc3c(C)c(O)c4c(O)c(c(/C=N/N5CCN(C)CC5)c(O)c4c3C2=O)NC(=O)/C(C)=C\C=C\[C@H](C)[C@H](O)[C@@H](C)[C@@H](O)[C@@H](C)[C@H](OC(C)=O)[C@@H]1C` [RIFAMPIN], the MIC in assay [3] was 0.61 µM (≈ 0.502 µg/mL).

For the molecule `[O-][N+]12CCC[C@]3(O)CCCCCC[C@@H]4CCN5CCC[C@@H](CCCCCC[C@H](CC1)O[C@@H]32)[C@@H]5O4` (stereo not given in full), the result in the assay with Plasmodium falciparum [1] and in the assay on Plasmodium falciparum [2] was inactive.

Broadly, the IC50 is the midpoint of a concentration-inhibition curve. The low end stands for greater potency, the high end for weaker potency. The term MIC denotes the smallest concentration in the dilution series that meets the test's criterion for growth inhibition. Low values mean greater potency, high ones weaker potency.
